Data taken from US20210161999A1, “COMPOSITIONS AND METHODS RELATED TO OVERCOMING INNATE IMMUNE BARRIERS TO CANCER IMMUNOTHERAPY” (Health Research, Inc., priority 2018, published 2021).
Entries after “also recorded” stand apart in the source; their conditions may differ.

Legend:
[1] = test system: TALs; assay: Coculture of TALs with autologous ascites and healthy donor PMN; anti-CD3/CD28-stimulated proliferation; assay type: cell-based, human; details: Cp40-ASC; TALs from n=3 patients, PMN from healthy donors
Text: FIG. 15. Inhibition of complement C3 activation abrogates the PMN suppressor phenotype induced by malignant effusions. […] The abrogation effect of Cp40 was highly robust, and was observed consistently in at least 10 separate experiments and 15 different ascites samples. […] C) Cryopreserved or fresh TALs (from n=3 patients) were cocultured with autologous ASC and/or PMN from healthy donors. […] Statistics are by ANOVA as compared to +CD3/CD28+ ASC+PMN (*, p<0.05; **, p<0.01; ***, p<0.001).
Inhibition of C3 abrogates neutrophil suppressor phenotype on EOC TALs In patients with metastatic EOC, tumor antigen-specific CD8^+ T cells have impaired effector function and increased co-expression of PD-1 and LAG-3 compared to circulating lymphocytes, and effector function was enhanced with blockade of PD-1 and LAG-3. We confirmed high expression of PD-1 and LAG-3 on TALs from the ascites of patients with newly diagnosed EOC (not shown). We next cocultured cryopreserved or fresh TALs from 3 patients with autologous ascites and/or neutrophils from healthy donors.

[2] = test system: T cells; assay: Surface expression of PD-1, LAG-3 and CTLA-4 on stimulated T cells after coculture (flow cytometry); assay type: cell-based, human; details: coculture with Cp40-ASC and PMN, compared to unstimulated (n=6)
Description: FIG. 6. Combination of ascites and PMN prevents T cell activation and is independent of exhaustion. T cells (CD3^+) and PMN were used in autologous coculture at 1:1. PMN and/or ascites supernatants (ASC; 50% final well volume) were added to anti-CD3/CD28-stimulated T cells. At 24, 48, and 72 h, T cells were analyzed for surface and intracellular expression of markers for activation, co-stimulation, and function. Surface expression of A) CD62L, B) CD69, C) CD4OL, and D) CD107a were evaluated at baseline (on y-axis) and at 24, 48, and 72 h (n=2). E-M) PD-1, LAG-3, and CTLA-4 expression was evaluated (n=4). CD8^+ T cells at 72 h are represented here in representative MFI overlays (E-G) and quantification (H-J); unstimulated T cells in media, grey solid; anti-CD3/CD28-stimulated, black dashed line; anti-CD3/CD28-stimulated+PMN, purple solid line; anti-CD3/CD28-stimulated+ASC, orange solid line; anti-CD3/CD28-stimulated+ASC+PMN, green solid line. […] N) At 72 h, intracellular expression of IFN-gamma was reduced as compared to stimulated alone (n=3). O-P) Combination of ASC and PMN reduced anti-CD3/CD28-stimulated T cell IL-2 levels (pg/mL) in supernatants to ND after 24 (O) and 72 h (P) of coculture (n=4). Background levels of PMN or ASC were ND; ND=non-detectable. Q) CTL activity of NY-ESO-1157-165-specific CD8^+ T cells directed at SK29 target cells pulsed with the NY-ESO-1 peptide was unaffected by coculture with ASC and/or PMN (n=3). Symbols represent individual samples (n) and bars represent SEM. Statistical comparisons were by Mann-Whitney (*, p<0.05; **, p<0.01; ***, p<0.001; ns, not significant). Results were consistent between CD4^+ and CD8^+ T cells.
Data were analyzed using FCS Express 6.
Fc receptors were blocked to prevent non-specific antibody binding prior to staining (15 min, 4° C.; anti-mouse CD16/CD32, clone 2.4G2; BD Biosciences). For phenotyping of PMN, antibodies targeted to human CD45 (clone REA747), CD15 (VIMC6) (Miltenyi Biotec, Inc.), CD63 (H5C6), CD66b (G10F5), and CD35 (Ell) (Biolegend) were used. […]

Question: Which “effect on suppression of stimulated TAL proliferation” value [1] does the source give for `CC[C@H](C)[C@H](NC(=O)[C@H](N)Cc1ccc(O)cc1)C(=O)N[C@H]1CSSC[C@@H](C(=O)N(C)[C@H](C(N)=O)[C@@H](C)CC)NC(=O)[C@H](CCCNC(=N)N)NC(=O)[C@H](Cc2c[nH]cn2)NC(=O)[C@H](C)NC(=O)CN(C)C(=O)[C@H](Cc2c[nH]c3ccccc23)NC(=O)[C@H](CC(=O)O)NC(=O)[C@H](CCC(N)=O)NC(=O)[C@H](Cc2cn(C)c3ccccc23)NC(=O)[C@H](C(C)C)NC1=O` [Cp40] here?
Answer: fully abrogated

Question: And the “CTLA-4 expression on stimulated T cells” value [2]?
Answer: showed an upwards trend; also recorded: upregulated relative to unstimulated T cells

Question: What about the “LAG-3 expression on stimulated T cells” value [2] of the same compound?
Answer: unaffected; also recorded: did not result in upregulation

Question: What about the “PD-1 expression on stimulated T cells” value [2] of the same compound?
Answer: unaffected; also recorded: did not result in upregulation
